Test systems include LXFL 529 NSCLC; DLD-1 colon; SNB-78 CNS; XF 498 CNS; PC-3 prostate; MDA-MB-435; NCI/ADR-RES ovarian; T-47D breast; MCF7 breast; HS 578T breast.
What all share (assay): growth of human tumour cells (NCI), 48 h

Each structure is given as a SMILES string. “And” between values parts separate entries of the source, which are not always exact repeats. Equal entries are not always repeated.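 Step 1: Grow cells in 96-well plates. Step 2: Expose to compound for 48 hours at 5 concentrations. Step 3: Interpolate endpoints linearly; if unreached, use highest concentration. At the GI50, growth is halved. Definition used: TGI = concentration required for complete inhibition of growth.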

On to `CC/C(=C(/CC)c1ccc(OP(=O)([O-])[O-])cc1)c1ccc(OP(=O)([O-])[O-])cc1.N.N.N.N.[Pt+4].[Pt+4]`, for which the GI50 was 14 µM in the test with LXFL 529 NSCLC, 9.51 µM with DLD-1 colon and 2.3 µM in the test with SNB-78 CNS. Further, the TGI with LXFL 529 NSCLC was 31.6 µM; with DLD-1 colon, above 100 µM; in the test on SNB-78 CNS, 6.81 µM.
For `Nc1cc2c3c(cccc3c1)C(=O)N(CCN1CCN(CCN3C(=O)c4cccc5cc(N)cc(c45)C3=O)CC1)C2=O`, the TGI with XF 498 CNS and with LXFL 529 NSCLC was above 100 µM each time.
In the case of `COC(=O)C12C3C=CC(O3)C1C1C=CC2O1` (stereo unspecified), the TGI with XF 498 CNS, in the test with LXFL 529 NSCLC and in the test with DLD-1 colon was above 100 µM throughout.
In turn, `CNS(=O)(=O)NN(C)S(=O)(=O)c1ccc(C)cc1` returned a TGI with DLD-1 colon above 100 µM.
`Cc1ccc(NC(=O)CCC(=O)C2CC(=O)CCC2=O)cc1C` (stereo unspecified): the TGI in the test with LXFL 529 NSCLC, in the test on DLD-1 colon and in the test with SNB-78 CNS was above 100 µM in each case.
For the compound `CCOC(=O)C12CN(C34CC5CC(CC(C5)C3)C4)CC(C(=O)OCC)(C1=O)C(c1ccccc1)OC2c1ccccc1` (stereo unspecified), the TGI with XF 498 CNS, in the test on LXFL 529 NSCLC, in the test on DLD-1 colon and with SNB-78 CNS was above 100 µM each time.
Consider `CC1(C)CC[C@]2(C(=O)O)CCC3(C)C(=CCC4[C@@]5(C)CC[C@H](OC6OCC(O)C(O)C6OC6OC(CO)C(O)C(O)C6O)C(C)(C)C5CC[C@]43C)C2C1` (stereo partly specified), for which the TGI amounted to 4.59 µM in the test with XF 498 CNS, 3.39 µM in the test with LXFL 529 NSCLC, 22.7 µM in the test with DLD-1 colon and 5.04 µM in the test with SNB-78 CNS.
As to `COc1cc(-c2[nH]ncc2CCCC(=O)Nc2ccccc2[N+](=O)[O-])ccc1O`, the TGI in the test on XF 498 CNS, in the test with LXFL 529 NSCLC and with DLD-1 colon was above 100 µM each time.
On to `CC(=O)OCC1OC(n2cnc3c(I)nc(I)nc32)C(OC(C)=O)C1OC(C)=O` (stereo unspecified), for which the results for the TGI in the test with XF 498 CNS, in the test with LXFL 529 NSCLC and with DLD-1 colon were 35.9 µM, 26.1 µM and 24.2 µM, respectively.
As to `Nc1ccc(C(=O)O)c2[nH]c3ccccc3c(=O)c12`, the TGI with LXFL 529 NSCLC, in the test with DLD-1 colon and in the test with SNB-78 CNS was above 100 µM in each case.
On to `CC1=C(C(=O)Nc2cc(F)c(F)cc2F)C(c2cccc([N+](=O)[O-])c2)C(C(=O)Nc2ccccc2C(F)(F)F)=C(C)N1` (stereo unspecified), for which the TGI in the test on LXFL 529 NSCLC amounted to 53.1 µM; in the test on DLD-1 colon, 94.7 µM; in the test on SNB-78 CNS, 59.2 µM.
On to `CCOc1ccc(NC(=O)/C(=C/c2ccccc2)C(C)=O)cc1`, for which the TGI was found to be 28.9 µM with XF 498 CNS, 24 µM in the test with DLD-1 colon and 38.8 µM in the test with SNB-78 CNS.
For the compound `Cc1cc(C)c2c(c1C)CN1CN2Cc2c(C)c(C)cc(C)c21`, the TGI in the test on LXFL 529 NSCLC, with DLD-1 colon and in the test on SNB-78 CNS was above 100 µM in each case.
In the case of `COc1ccc(C=O)c(N(C)C(=O)C(C)(C)C)c1`, the TGI with XF 498 CNS and in the test on SNB-78 CNS was above 100 µM throughout.
On to `CC(=O)[CH-]C(=O)c1ccccc1.CC(=O)[CH-]C(=O)c1ccccc1.[O-]Cc1cccs1.[O-]Cc1cccs1.[Ti+4]`, for which, in the test with LXFL 529 NSCLC, the GI50 is 25.3 µM and the TGI was above 100 µM.
Regarding `C[CH2][Sn]([CH2]C)([O]C(=O)c1cc(OC)c(OC)c(OC)c1)[O][Sn]([CH2]C)([CH2]C)[O]C(=O)c1cc(OC)c(OC)c(OC)c1`, the GI50 in the test on XF 498 CNS was 16.9 µM; with DLD-1 colon it was 27.9 µM; in the test with SNB-78 CNS, 17 µM. Also, the values for the TGI with XF 498 CNS, with DLD-1 colon and in the test on SNB-78 CNS were 31.3 µM, above 74.1 µM and 41 µM, respectively.
As for `Cn1c(=O)c2c(nc3n2C(CCl)CO3)n(C)c1=O` (stereo unspecified), the TGI with DLD-1 colon and in the test with SNB-78 CNS was above 100 µM in each case.
With `COc1cccc(C2C3=C(COC3=O)N(CCO)c3cc4c(cc32)CCC4)c1` (stereo unspecified), the GI50 in the test on PC-3 prostate is 0.0577 µM; in the test with MDA-MB-435, 0.0131 µM; in the test with NCI/ADR-RES ovarian it was 0.0556 µM; in the test with T-47D breast, 0.0832 µM; in the test with MCF7 breast, 0.0193 µM; in the test with HS 578T breast, 0.0285 µM. Moreover, the TGI was above 50 µM in the test with PC-3 prostate; 0.0334 µM in the test on MDA-MB-435; 0.23 µM in the test on NCI/ADR-RES ovarian; 36.6 µM in the test with T-47D breast; above 18.1 µM in the test with MCF7 breast; 32.4 µM in the test on HS 578T breast.
Turning to `O=C(O)Cc1ccccc1`, the GI50 in the test on PC-3 prostate, in the test on NCI/ADR-RES ovarian, in the test on T-47D breast and in the test with HS 578T breast was above 1000 µM each time. The TGI with PC-3 prostate is above 2000 µM; in the test on MDA-MB-435, above 2000 µM; with NCI/ADR-RES ovarian it was above 2000 µM; in the test on T-47D breast, above 2000 µM; in the test on MCF7 breast, above 2000 µM; in the test on HS 578T breast, > 1000 µM and 1780 µM.
For the compound `O=C(/C=C/c1cccnc1)/C=C/c1cccnc1`, the GI50 with PC-3 prostate is 0.558 µM; in the test with MDA-MB-435, 1.78 µM; in the test with NCI/ADR-RES ovarian, 4.08 µM; with T-47D breast, 2.14 µM; with MCF7 breast, 0.379 µM; with HS 578T breast, 3.44 µM. Moreover, the TGI amounted to 3.01 µM with PC-3 prostate; 4.84 µM in the test on MDA-MB-435; 30.6 µM in the test with NCI/ADR-RES ovarian; 6.87 µM in the test with T-47D breast; 1.84 µM in the test with MCF7 breast; 17.3 µM in the test on HS 578T breast.
In the case of `COc1ccc2c(c1)C(=O)/C(=C/c1ccc(OCC(=O)c3ccc(Cl)cc3)cc1)O2`, the GI50 is 14.7 µM in the test on PC-3 prostate; 22.9 µM in the test on MDA-MB-435; 16.3 µM with NCI/ADR-RES ovarian; 10.5 µM with T-47D breast; 28.3 µM with MCF7 breast; 22.1 µM in the test on HS 578T breast. In addition, the TGI in the test with PC-3 prostate is 69.1 µM; in the test on MDA-MB-435, 91.8 µM; in the test with NCI/ADR-RES ovarian it was 41.8 µM; in the test with T-47D breast it was 35.7 µM; with MCF7 breast, above 100 µM; in the test with HS 578T breast, 84.6 µM.
On to `O=C1/C(=C\c2ccccc2)CN(C(=O)c2ccccc2F)C/C1=C\c1ccccc1`, for which the GI50 is 2.34 µM in the test with PC-3 prostate; 1.13 µM in the test with MDA-MB-435; 3.3 µM in the test with NCI/ADR-RES ovarian; 2.57 µM with T-47D breast; 0.449 µM in the test on MCF7 breast; 2.48 µM with HS 578T breast. Moreover, the TGI in the test on PC-3 prostate amounted to 7.22 µM; in the test with MDA-MB-435, 3.32 µM; with NCI/ADR-RES ovarian, 19.4 µM; in the test with T-47D breast, 8.78 µM; in the test on MCF7 breast, 2.07 µM; in the test with HS 578T breast, 7.13 µM.

The record behind these values is PubChem BioAssay (NCI).
